Where a name gives a salt, the structure may show the parent alone.
Target: PDE5 (Sus scrofa, UniProt A0A287B475)
Assay: Inhibitory action on the enzyme cGMP-PDE obtained from porcine platelets
Format: biochemical
Details: 1 μM cGMP substrate, 1 mM EGTA, read-out: PDE 5 IC50
Method: 1) Inhibitory Action on the Enzyme cGMP-PDE Obtained from Porcine Platelets
The inhibitory activity of a test compound on the enzyme cGMP-PDE prepared from porcine platelets was determined by adding a solution of the test compound dissolved in DMSO to a reaction solution, where 1 μM cGMP was used as the substrate in the presence of 1 mM EGTA in accordance with a method of Tompson et al. The final concentration of DMSO in the reaction solution was 1% or less. Preparation of cGMP-PDE was conducted as follows. Porcine platelets were added to buffer A (20 mM Tris/HCl, 2 mM magnesium acetate, 10 mM 2-mercaptoethanol, 0.1 mM EGTA; pH 7.4), and then sonicated. The resulting suspension was centrifuged at 100,000×g for 60 min, and the resulting supernatant was subjected to a column (DEAE-Toyopearl 650S produced by Tosoh, Tokyo, Japan). After the column was washed with buffer A, the enzyme was eluted with a gradient of from 0.075 to 0.25 M NaCl in buffer A to give a CGMP-PDE fraction. The resulting fraction was dialyzed, concentrated and stored.

| IC50 | SMILES |
| --- | --- |
| 0.98 nM | COc1ccc(CNc2nnc(N3CCC(O)(CO)CC3)c3ccc(C#N)cc23)cc1Cl [Example 6, 4-(3-Chloro-4-methoxybenzyl)amino-6-cyano-1-[4-hydroxy-4-(hydroxymethyl)piperidino]phthalazine Hydrochloride] |
| 0.12 nM | COc1ccc(CNc2nnc(N3[C@@H]4CC[C@H]3C[C@@H](O)C4)c3ccc(C#N)cc23)cc1Br [Example 85, (endo)-4-[(3-Bromo-4-methoxybenzyl)amino]-1-(3-hydroxy-8-azabicyclo[3.2.1]octo-8-yl)-6-phthalazine Carbonitrile] |
| 0.68 nM | COc1ccc(CNc2nnc(N3CCC4(CC3)COC(=O)C4)c3ccc(C#N)cc23)cc1Cl [Example 11, 4-[(3-Chloro-4-methoxybenzyl)amino]-1-(3-oxo-2-oxa-8-azaspiro[4.5]dece-8-yl)-6-phthalazine Carbonitrile] |
| 0.24 nM | COc1ccc(CNc2nnc(N3CCC(=NO)CC3)c3ccc(C#N)cc23)cc1Cl [Example 50, 4-[(3-Chloro-4-methoxybenzyl)amino]-1-(4-hydroxyiminopiperidino)-6-phthalazinecarbonitrile Hydrochloride] |
| 0.2 nM | COc1ccc(CNc2nnc(N3[C@@H]4CC[C@H]3C[C@@H](O)C4)c3ccc(C#N)cc23)cc1Cl [Example 52, (endo)-4-[(3-Chloro-4-methoxybenzyl)amino]-1-(3-hydroxy-8-azabicyclo[3.2.1]oct-8-yl)-6-phthalazinecarbonitrile Hydrochloride] |
| 0.051 nM | COc1ccc(CNc2nnc(N3CCC(N)CC3)c3ccc(C#N)cc23)cc1Cl [Example 5, 1-(4-Aminopiperidino)-4-(3-chloro-4-methoxybenzyl)amino-6-cyanophthalazine Dihydrochloride] |
| 0.54 nM | COc1ccc(CNc2nnc(N3CCC4(CC3)CC(=O)C4)c3ccc(C#N)cc23)cc1Cl [Example 12, 4-[(3-Chloro-4-methoxybenzyl)amino]-1-(2-oxo-7-azaspiro[3.5]non-7-yl)-6-phthalazine Carbonitrile] |
| 0.24 nM | COc1ccc(CNc2nnc(N3CCC(O)C(C)C3)c3ccc(C#N)cc23)cc1Cl (centres unmarked) [Production Example 11, 4-[(3-Chloro-4-methoxybenzyl)amino]-1-(4-hydroxy-3-methylpiperidino)-6-phthalazinecarbonitrile Hydrochloride] |
| 1.1 nM | COc1ccc(CNc2nnc(N3CCC(C#N)CC3)c3ccc(C#N)cc23)cc1Cl [Example 3, 4-(3-Chloro-4-methoxybenzyl)amino-6-cyano-1-(4-cyanopiperidino)phthalazine Hydrochloride] |
| 0.51 nM | COc1ccc(CCNc2nnc(N3CCC(C#N)CC3)c3ccc(C#N)cc23)cc1Cl [Example 4, 4-(3-Chloro-4-methoxyphenethyl)amino-6-cyano-1-(4-cyanopiperidino)phthalazine Hydrochloride] |
| 0.5 nM | COc1ccc(CCNc2nnc(N3CCC(CO)CC3)c3ccc(C#N)cc23)cc1Cl [Production Example 6, 4-(3-Chloro-4-methoxyphenethyl)amino-6-cyano-1-(4-hydroxymethylpiperidino)phthalazine] |
| 0.1 nM | COc1ccc(CNc2nnc(N3CCC(O)CC3)c3ccc(-n4cccn4)cc23)cc1Cl [Example 105, 1-[4-[(3-Chloro-4-methoxybenzyl)amino]-6-(1H-1-pyrazolyl)-1-phthalazinyl]-4-piperidinol Hydrochloride] |
| 0.3 nM | COc1ccc(CNc2nnc(-c3ccccn3)c3ccc(C#N)cc23)cc1Cl [Example 2, 4-(3-Chloro-4-methoxybenzyl)amino-6-cyano-1-(2-pyridyl)phthalazine Dihydrochloride] |
| 0.72 nM | COc1ccc(CNc2nnc(N3CCC[C@H]3CO)c3ccc(C#N)cc23)cc1Cl [Production Example 3, 4-(3-Chloro-4-methoxybenzyl)amino-6-cyano-1-[(2S)-2-hydroxymethylpyrrolidino]phthalazine Hydrochloride] |
| 0.47 nM | COc1ccc(CNc2nnc(N(C)CCc3ccccn3)c3ccc(C#N)cc23)cc1Cl [Production Example 8, 4-(3-Chloro-4-methoxybenzyl)amino-6-cyano-1-{N-methyl-[2-(2-pyridyl)ethyl]amino}phthalazine Dihydrochloride] |
| 0.13 nM | COc1ccc(CNc2nnc(N3CCC(O)CC3)c3ccc(C#N)cc23)cc1I [Example 76, 1-(4-Hydroxypiperidino)-4-[(3-iodo-4-methoxybenzyl)amino]-6-phthalazinecarbonitrile Hydrochloride] |
| 0.93 nM | COc1ccc(CNc2nnc(N3CCC(CO)CC3)c3ccc(C#N)cc23)cc1Br [Example 84, 4-[(3-Bromo-4-methoxybenzyl)amino]-1-[4-(hydroxymethyl)piperidino]-6-phthalazinecarbonitrile Hydrochloride] |
| 0.66 nM | CO/N=C/c1ccc2c(N3CCC(O)CC3)nnc(NCc3ccc(OC)c(Cl)c3)c2c1 [Example 110, 4-[(3-Chloro-4-methoxybenzyl)amino]-1-(4-hydroxypiperidino)-6-phthalazinecarbaldehyde O6-Methyloxime Hydrochloride] |
| 0.16 nM | COc1ccc(CNc2nnc(C#CC(C)(C)N)c3ccc(C#N)cc23)cc1Cl [Example 25, 1-(3-Amino-3-methyl-1-butynyl)-4-[(3-chloro-4-methoxybenzyl)amino]-6-phthalazinecarbonitrile Hydrochloride] |
| 0.09 nM | COc1ccc(CNc2nnc(N3CCC[C@@H](O)C3)c3ccc(C#N)cc23)cc1Cl [Production Example 1, 4-(3-Chloro-4-methoxybenzyl)amino-6-cyano-1-[(3R)-3-hydroxypiperidino]phthalazine Hydrochloride] |
| 0.23 nM | COc1ccc(CCNc2nnc(N3CCCC(CO)C3)c3ccc(C#N)cc23)cc1Cl (centres unmarked) [Production Example 5, 4-(3-Chloro-4-methoxyphenethyl)amino-6-cyano-1-(3-hydroxymethylpiperidino)phthalazine Hydrochloride] |
| 0.03 nM | COc1ccc(CNc2nnc(N(C)Cc3ccccn3)c3ccc(C#N)cc23)cc1Cl [Production Example 7, 4-(3-Chloro-4-methoxybenzyl)amino-6-cyano-1-[methyl(2-pyridylmethyl)amino]phthalazine Dihydrochloride] |
| 0.27 nM | COc1ccc(CNc2nnc(N3CC[C@H](CO)C3)c3ccc(C#N)cc23)cc1Br [Example 79, 4-[(3-Bromo-4-methoxybenzyl)amino]-1-[(3S)-3-(hydroxymethyl)tetrahydro-1H-1-pyrrolyl]-6-phthalazinecarbonitrile Hydrochloride] |
| 0.23 nM | COc1ccc(CNc2nnc(N3CCC(F)(CO)CC3)c3ccc(C#N)cc23)cc1Cl [Example 43, 4-[(3-Chloro-4-methoxybenzyl)amino]-1-[4-fluoro-4-(hydroxymethyl)piperidino]-6-phthalazinecarbonitrile Hydrochloride] |
| 0.19 nM | COc1ccc(CNc2nnc(N3CCCC(CO)C3)c3ccc(C#N)cc23)cc1Cl (centres unmarked) [Production Example 4, 4-(3-Chloro-4-methoxybenzyl)amino-6-cyano-1-(3-hydroxymethylpiperidino)phthalazine Hydrochloride] |
| 0.78 nM | COc1ccc(CNc2nnc(-c3cccnc3)c3ccc(C#N)cc23)cc1Cl [Example 1, 4-(3-Chloro-4-methoxybenzyl)amino-6-cyano-1-(3-pyridyl)phthalazine Dihydrochloride] |
